Literature values, collected in PMC8359378 (British Journal of Clinical Pharmacology, 2021).

How the values were obtained:
[1] = intravenous infusion; cited from earlier work
factor XIa activity = details: cited from earlier work
FXI and FXIa = details: subcutaneous administration; cited from earlier work

Q: For `CN1CCN(c2cccc3c2CCN(C(=O)/C=C/c2c(-n4cnnn4)ccc(Cl)c2F)[C@@H]3C(=O)Nc2ccc(C(=O)O)cc2)C(=O)C1` [BMS‐962212], which “patients in the active treated groups reporting AEs” value [1] is on record?
A: 17.6%

Q: And the “patients reporting infusion site pain or irritation” value [1]?
A: 5.9%

B1: Osocimab: fully human IgG1 monoclonal antibody targeting coagulation factor XIa (antibody, chains of the INN, looked up, V domains shown)
VH: EVQLLESGGGLVQPGGSLRLSCAASGFTFSQYGMDWVRQAPGKGLEWVSGIGPSGGSTVYADSVKGRFTISRDNSKNTLYLQMNSLRAEDTAVYYCTRGGPYYYYGMDVWGQGTTVTVSS
VL: DIQMTQSPSSLSASVGDRVTITCQASQDISNYLNWYQQKPGKAPKLLIYDASNLETGVPSRFSGSGSGTDFTFTISSLQPEDIATYYCQQADSFPVTFGGGTKVEIK
Q: With B1 as the molecule, how does the “effect on apparent factor XIa activity and aPTT” value (factor XIa activity) read?
A: reduced apparent factor XIa activity and prolonged aPTT in a dose‐dependent manner

B2: MAA868: fully human antibody which binds both FXI and FXIa (antibody, chains of the INN, looked up, V domains shown)
VH: QVQLLESGGGLVQPGGSLRLSCAASGFTFSTAAMSWVRQAPGKGLEWVSGISGSGSSTYYADSVKGRFTISRDNSKNTLYLQMNSLRAEDTAVYYCARELSYLYSGYYFDYWGQGTLVTVSS
VL: QSVLTQPPSASGTPGQRVTISCSGSSSNIGSNDVSWYQQLPGTAPKLLIYKNYNRPSGVPDRFSGSKSGTSASLAISGLQSEDEADYYCSAWDQRQFDVVFGGGTKLTVL
Q: With B2 as the molecule, how does the “effect on aPTT and FXI” value (FXI and FXIa) read?
A: robust and sustained prolongation of aPTT and FXI suppression
